US8629093B2, “Detergent composition comprising mixture of chelants” (The Procter & Gamble Company, priority 2010, dated 2014)

How the values were obtained:
[1] = Stain removal on tea stains (MiniWasher, image analysis); conditions: wash 32.2° C., 6 gpg hardness, 12 minutes
Method: (§1) The performance of the chelants were measured on wine and tea. Wine and tea stains were applied to cotton and obtained from EMC (US). Stains and ballast load consisting of 0.5 kg of T-shirt was added to a MiniWasher representing a medium US wash conditions. The wash water was set at 32.2° C.±1° C. and 6 gpg (1 mmol/L) hardness and the rinse water was set at 15.5° C.±1° C. The water volume was 15 liters and wash time 12 minutes.
(§2) The stains and the ballast were dried at the end of each cycle under high speed and high heat with cool down cycle. The results were then analyzed by image analysis which is a method that enables to calculate the amount of stain that is removed. Stains are imaged before washing and after washing. The imaging calculates the amount of stain removal index (SRI). SRI of 100 means complete removal and SRI of zero is no removal.
(§3) The Laundry Image Analysis system (Merlin image analysis system) measures stain removal on technical stain swatches. The system utilizes a video camera to acquire color images of swatches. An image of the swatch is taken before and after it is washed. The acquired image is then analyzed by computer software (Global R&D computing). The software compares the unwashed stain to the washed stain, as well as the unwashed fabric to the washed fabric and produces five figures of merit which describe stain removal. The data are then analyzed statistically to determine statistically significant differences between the detergent performances.
(§4) The stain removal index uses the initial fabric as the reference against which to measure color differences between unwashed and washed stains. A higher value indicates a better cleaning and stain removal thus a better detergent. The standard deviation is 1.

[2] = Stain removal on wine stains (MiniWasher, image analysis); conditions: wash 32.2° C., 6 gpg hardness, 12 minutes
Method: as §1, §2, §3, §4

[3] = Product stability on storage, assessed visually; type: physicochemical
Method: Products (I through III) were prepared by combining Composition C and the 3 different chelant combinations. The products (75 g) were stored for 4 weeks at 4° C., 20° C. and 35° C. in a Glass Jar (100 mL contenance). The product stability was then assessed visually. If there is a visual precipitate or a product phase split, the stability is considered Fail. Stability is considered Pass if there is no signs of changes during the storage period.

[4] = Cleaning efficacy of compact liquid detergent composition; conditions: composition comprising 0.7% of Na-DTPA
[5] = chelant 1 ppm, SRI 100 = complete removal, standard deviation 1

SMILES | Stain Removal Index Tea [1, 5] | Stain Removal Index Tea ([1]; chelant 2 ppm) | Stain Removal Index Tea ([1]; chelant 3 ppm) | Stain Removal Index Wine [2, 5] | Stain Removal Index Wine ([2]; chelant 2 ppm) | Stain Removal Index Wine ([2]; chelant 3 ppm) | Stability of compact liquid detergent composition ([3]; composition comprising 0.7% of Na-DTPA) | Stability of compact liquid detergent composition ([3]; quantity of Na-DTPA increased to the effective level) | Cleaning efficacy [4]
O=C([O-])CC(NCCNC(CC(=O)O)C(=O)[O-])C(=O)[O-].[Na+].[Na+].[Na+] (stereo not drawn) [Na-EDDS, sodium salt of Ethylenediamine-N,N′-disuccinic acid] | 28.2 | 29.3 | 26.1 | 58.3 | 59.0 | 56.8 |  |  | 
O=C([O-])CN(CCN(CC(=O)[O-])CC(=O)[O-])CCN(CC(=O)[O-])CC(=O)[O-].[Na+].[Na+].[Na+].[Na+].[Na+] [Na-DTPA, sodium salt of diethylene triamine pentaacetate] | 27.6 | 29.0 | 27.1 | 55.2 | 55.8 | 56.4 | stable | does not meet the stability requirements | does not provide desired cleaning efficacy
